Results reported in ChEMBL document CHEMBL1128169, “Thiourea analogues of resiniferatoxin as ligands for the vanilloid receptor” (Bioorg Med Chem Lett, 1995).

target: Transient receptor potential cation channel subfamily V member 1 (Homo sapiens, UniProt Q8NER1); experiment: Displacement of [3H]RTX binding from vanilloid receptor
Sequence (Q8NER1 whole entry): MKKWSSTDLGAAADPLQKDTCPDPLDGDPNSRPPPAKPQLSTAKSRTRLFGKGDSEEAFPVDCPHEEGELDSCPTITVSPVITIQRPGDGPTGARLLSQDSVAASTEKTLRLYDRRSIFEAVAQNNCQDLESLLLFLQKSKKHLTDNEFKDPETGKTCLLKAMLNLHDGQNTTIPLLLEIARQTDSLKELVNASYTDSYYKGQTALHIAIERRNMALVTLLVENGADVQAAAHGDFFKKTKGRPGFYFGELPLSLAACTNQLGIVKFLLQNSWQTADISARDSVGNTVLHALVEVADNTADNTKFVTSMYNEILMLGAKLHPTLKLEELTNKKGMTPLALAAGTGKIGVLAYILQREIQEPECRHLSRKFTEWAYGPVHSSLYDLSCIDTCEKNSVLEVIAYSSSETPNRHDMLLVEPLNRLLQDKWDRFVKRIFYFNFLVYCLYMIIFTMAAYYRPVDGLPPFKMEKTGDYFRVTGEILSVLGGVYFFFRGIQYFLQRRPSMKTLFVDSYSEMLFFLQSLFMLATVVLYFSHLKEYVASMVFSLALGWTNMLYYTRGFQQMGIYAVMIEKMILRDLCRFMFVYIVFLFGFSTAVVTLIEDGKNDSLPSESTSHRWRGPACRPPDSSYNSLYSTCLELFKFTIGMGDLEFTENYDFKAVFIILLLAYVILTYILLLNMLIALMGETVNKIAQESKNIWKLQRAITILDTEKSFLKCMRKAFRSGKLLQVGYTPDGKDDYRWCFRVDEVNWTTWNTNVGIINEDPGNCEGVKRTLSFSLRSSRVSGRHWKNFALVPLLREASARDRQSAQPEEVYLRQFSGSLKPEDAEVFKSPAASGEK

Compared with `C=C(C)[C@]12C[C@@H](C)[C@@]34OC(Cc5ccccc5)(O[C@@H]1[C@@H]3C=C(CNC(=S)NCc1ccc(O)c(OC)c1)C[C@]1(O)C(=O)C(C)=C[C@@H]41)O2`, `C=C(C)[C@]12C[C@@H](C)[C@@]34O[C@](Cc5ccccc5)(O[C@@H]1[C@@H]3C=C(COC(=O)Cc1ccc(O)c(OC)c1)C[C@]1(O)C(=O)C(C)=CC41)O2` (single isomer, unassigned) [RESINIFERATOXIN] is 6.5-fold lower in Ki: 149 nM for the first, 23.1 nM for the second. The second binds more tightly here.

Molecule `C=C(C)[C@]12C[C@@H](C)[C@@]34OC(Cc5ccccc5)(O[C@@H]1[C@@H]3C=C(C/N=C(\S)Nc1ccc(O)c(OC)c1)C[C@]1(O)C(=O)C(C)=C[C@@H]41)O2` has a Ki of 66.1 nM.
